Assays:
P. berghei sporozoites [1] = assay: Propidium iodide toxicity assay on sporozoites; assay type: cell-based, Plasmodium berghei; settings: for toxicity to sporozoites (propidium iodide): ten minutes
Procedure: When sporozoites were incubated with specific inhibitors, their concentrations were as follows: 10 […] E-64; 1 mM phenylmethylsulfonyl fluoride (PMSF); 0.3 mM aprotinin; 100 mM 3,4 DCl; 75 mM leupeptin; 100 mM TLCK; 1 mM pepstatin; 1 mM 1,10 phenanthroline; 5 mM EDTA; 0.5% sodium azide. To check for toxicity by propidium iodide (PI) staining, P. berghei sporozoites were incubated in the presence or absence of the various protease inhibitors for two hours at 28° C., PI was then added to a final concentration of […] for five minutes at 28° C. The sporozoites were washed and viewed under a fluorescent microscope.
P. berghei sporozoites were incubated with the indicated concentrations of allicin for ten or sixty minutes at 28° C., washed with DMEM, and then incubated with 1 μg/ml propidium iodide for five minutes at 25° C. The number of fluorescent sporozoites in each sample was counted using a Nikon Eclipse E600 microscope. Control samples consisted of sporozoites that were incubated for sixty minutes at 28° C. in DMEM without allicin and sporozoites that were heat killed at 65° C. for ten minutes.

[2] = Brodnitz, M. H., et al.; cited from earlier work
[3] = tested on: sporozoite migration through cells; settings: 10 mM E-64, rhodamine-dextran positive cells
Procedure: Migration assays were performed as previously described (Mota, M., et al.). Sporozoites were pre-incubated±10 mM E-64 for two hours at 28° C. and added to monolayers of Hepa 1-6 cells in the continued presence of inhibitor with 1 mg/ml rhodamine-dextran, 10,000 MW (Molecular Probes). After one hour at 37° C., the cells were washed, fixed and the number of rhodamine-positive cells in each field was counted.

P. yoelii sporozoites = settings: sporozoites preincubated with E-64
[4] = tested on: CSP processing in P. falciparum sporozoites; assay: Pulse-chase metabolic labeling of CSP processing, P. falciparum sporozoites; assay type: cell-based, Plasmodium falciparum; settings: ninety minute chase
Procedure: P. berghei sporozoites were incubated in Dulbecco's Modified Eagle Medium (DMEM; Invitrogen, Carlsbad, Calif.) without cysteine (Cys) and methionine (Met), containing 1% BSA and […] L-[35 S]-Cys/Met (Pro-Mix, Amersham Pharmacia) in a total volume of 200 μl for one hour at 28° C. They were then washed and resuspended in DMEM/BSA containing unlabeled Cys/Met at 28° C. for the indicated time in the presence or absence of the indicated protease inhibitor. Sporozoites were then lysed and CSP was immunoprecipitated and analyzed by autoradiography as outlined below.
For experiments with P. falciparum, a 10% SDS-polyacrylamide gel was used. Gels were fixed in 25% methanol/12% acetic acid, enhanced with Amplify (Amersham Pharmacia) for 30 minutes, dried, and exposed to film.
P. berghei sporozoites were metabolically labeled in DMEM without Cys/Met, 1% BSA and 400 μCi/ml L-[^355]-Cys/Met for 1 hour at 28° C. and then kept on ice or chased at 28° C. for the indicated times. Details of this procedure are outlined in (Coppi et al., 2005). To investigate the kinetics of processing in the presence of hepatocytes, sporozoites were labeled as above, chased at 28° C. for 1 hour and then centrifuged (300×g) onto glass coverslips with Hepa 1-6 cells and incubated at 37° C. for 5, 15 or 30 minutes. […]

[5] = tested on: P. falciparum sporozoites; assay: Sporozoite invasion assay, P. falciparum on HepG2 cells; assay type: cell-based, Plasmodium falciparum; settings: sporozoites preincubated with E-64, HepG2 cells
Procedure: %invasion=total sporozites−extracellular sporozites×100/total sporozites
Hepa 1-6 cells were seeded in Permanox eight-chambered Lab-Tek wells (2.5×10^5/well) and allowed to grow overnight. On the day of the experiment, 5×10^5 P. berghei wild type, RCon or ΔRI sporozoites were added per well. Sporozoites pre-incubated with 10 μM E-64d for 15 minutes at 25° C. were used as controls. For experiments testing the effect of anti-repeat region antibodies on invasion, HepG2 cells were used and P. berghei or P. falciparum sporozoites were added to the cells in the presence of the indicated antibody. After 1 hour at 37° C., cells were washed, fixed, and sporozoites were stained with a double staining assay that distinguishes intracellular from extracellular sporozoites (Renia et al., 1988). To quantify EEF development, cells with sporozoites were grown for an additional 2 days after which they were fixed with methanol, stained with mAb 2E6 followed by goat anti-mouse Ig conjugated to FITC. In all assays, at least 50 fields per well were counted and each point was performed in triplicate.

P. berghei sporozoites [6] = tested on: P. berghei sporozoites
Procedure: Panel A illustrates P. berghei sporozoites were metabolically labeled with [35 S]-Cys/Met and then washed and kept on ice (lane 1) or chased with cold medium for two hours at 28° C., in the absence (lane 2) or presence of the indicated protease inhibitors (lanes 3-11). After the chase, sporozoites were lysed, CSP was immunoprecipitated and analyzed by SDS-PAGE and autoradiography (abbreviations: Apr, aprotinin; DCl, 3,4 DCl; Leu, leupeptin; Pep, pepstatin; Phen, 1,10 phenanthroline). Panel B illustrates P. falciparum sporozoites were metabolically labeled as above and then kept on ice (lane 1) or chased with cold medium for ninety minutes in the absence (lane 2) or presence of E-64 (lane 3). Samples were processed as outlined above. Panel C illustrates P. berghei sporozoites were preincubated with buffer (lane 1) or the indicated compounds, washed, metabolically labeled with [^35S]-Cys/Met, lysed, and CSP was immunoprecipitated and analyzed by SDS-PAGE and autoradiography. (Abbreviations: Az=sodium azide).
In addition to the above, pulse-chase metabolic labeling experiments were performed with sporozoites of the human malaria parasite, Plasmodium falciparum. […] In order to insure that the protease inhibitors were not toxic to sporozoites, sporozoites were incubated with the various inhibitors for two hours and then propidium iodide (hereinafter, “PI”) was added, which is a fluorescent molecule that enters permeabilized cells.

Row | SMILES | number of fluorescent (propidium iodide) sporozoites (P. berghei sporozoites [1]; 50 μM allicin 10 minutes, then 4.2 μM for 50 minutes) | increase in number of sporozoites taking up propidium iodide (P. berghei sporozoites [1]; 50 μM allicin, one hour) [fold] | toxicity to sporozoites (propidium iodide) (P. berghei sporozoites [1]; 50 μM allicin) | percentage of sporozoites that took up propidium iodide (P. berghei sporozoites [1]; 1 or 10 μM allicin for up to one hour) | toxicity to sporozoites (propidium iodide) (P. berghei sporozoites [1]; allicin concentrations higher than 50 μM) | stability in vivo [2] | sporozoite migration through cells [3] | effect on invasion by P. yoelii sporozoites (P. yoelii sporozoites) | effect on CSP processing [4] | effect on invasion by P. falciparum sporozoites [5] | CSP synthesis after incubation with inhibitor (P. berghei sporozoites [6])
1 | C=CCS[S+]([O-])CC=C (centres unmarked) [allicin] | did not increase the number of fluorescent sporozoites compared to the untreated control | 1.5 | did not kill sporozoites | no different from the untreated control | toxic to the sporozoites even after only ten minutes of exposure | rapid decomposition in vivo | – | – | – | – | –
2 | CC(C)C[C@H](NC(=O)[C@H]1O[C@@H]1C(=O)O)C(=O)NCCCCN=C(N)N (relative stereo) [E-64, L-trans-epoxysuccinyl-leucylamide-[4-guanido]-butane] | – | – | – | – | – | – | did not inhibit sporozoite migration through cells | significantly inhibited | inhibited CSP processing | significantly inhibited | not affected

From patent publication US20130022612A1, “METHODS AND COMPOSITIONS FOR MALARIA PROPHYLAXIS” (priority 2004, published 2013)
